# Numbering of substitutions follows the chain as printed.
# Assays:
# [1] = target: T1, human α1S267I-GlyR expressed in HEK 293 cells (Homo sapiens, UniProt P23415, S295I); settings: S267I
# T1 sequence (P23415 29-457 S295I): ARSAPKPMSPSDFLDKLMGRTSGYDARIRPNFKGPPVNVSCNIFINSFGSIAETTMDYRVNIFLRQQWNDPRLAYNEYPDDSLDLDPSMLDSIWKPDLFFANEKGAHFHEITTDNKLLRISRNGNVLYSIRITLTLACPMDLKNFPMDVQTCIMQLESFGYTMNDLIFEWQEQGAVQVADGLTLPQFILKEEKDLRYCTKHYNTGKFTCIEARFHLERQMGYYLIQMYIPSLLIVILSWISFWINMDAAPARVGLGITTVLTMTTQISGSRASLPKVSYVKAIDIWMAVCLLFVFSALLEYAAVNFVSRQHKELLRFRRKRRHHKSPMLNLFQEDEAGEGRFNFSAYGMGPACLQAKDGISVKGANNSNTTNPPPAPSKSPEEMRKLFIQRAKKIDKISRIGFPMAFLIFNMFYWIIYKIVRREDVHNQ
# Source text: (§1) Human α1-, α1R271Q-, α1R271L-, α1R271K and α1S267I-GlyR subunits were transiently transfected into human embryonic kidney cells (HEK 293, ATCC, Manassas, USA). The wild type α1-GlyR -cDNA was cloned in pCIS2 (Invitrogen, San Diego, USA) vector and provided by Prof. Heinrich Betz (Max-Planck-Institut für Hirnforschung, Frankfurt am Main, Germany). For the plasmid cDNA of the mutated α1R271Q-, α1R271L-, α1R271K- and α1S267I-GlyR the eukaryotic expression vector pcDNA1amp (Invitrogen, San Diego, USA), under the control of cytomegalovirus promoter, was used. For site-directed mutagenesis, single stranded template cDNA was synthesized from M13 origin of replication and the mutations of arginine residue (R) at position 271 to glutamine (R271Q), leucine (R271L) or lysine (R271K) and mutation of serine residue (S) at position 267 to isoleucine (S267I) were generated using standard procedures. […] Wild type and mutated α1-GlyR subunits efficiently form homomeric receptors in heterologous expression systems.
# (§2) HEK 293 cells were cultured in medium containing HAMS’F-12 (Biochrom, Berlin, Germany), supplemented with 10% fetal bovine serum (FBS, Biochrom, Berlin, Germany), 100 U ml^–1 penicillin and 100μgml^–1 streptomycin (Gibco BRL, Life Technologies, Karlsruhe, Germany) at 37°C in a 5% CO2/ 95% air incubator. For transfection cells were suspended in a buffer containing 50mM K2HPO4 (Fluka BioChemika, Seelze, Germany), 20mMK-acetate (Sigma-Aldrich, Taufkirchen, Germany) and 25mM MgSO4 (Sigma-Aldrich, Taufkirchen, Germany) at pH 7.35. To visualize transfected cells, they were co-transfected with cDNA encoding for enhanced green fluorescent protein (EGFP) contained in the pEGFP-N1 expression vector (Clontech, Palo Alto, USA). The corresponding cDNA (5μg for the GlyR and 2.5μg for EGFP) was added to 400μl of the cell suspension and the mixture was rapidly transferred into the electroporation cuvette. For transfection we used an electroporation device by EquiBio (Kent, UK) and a 4mm aluminum electrode electroporation cuvette (Peqlab, Erlangen, Germany).
# (§3) The phenol derivative 4-chloropropofol ([…]) was provided as pure substance by Prof. Paul M. O’Neill (University of Liverpool, England), prepared as light-protected 1M stock solution in ethanol (EtOH, J.T.Baker, Griesheim, Germany) and stored in glass vessels at −20°C.
# (§4) Drug-containing vials were vigorously vortexed for 30min. Patch electrodes were filled with an intracellular solution of [mM] KCl 140, MgCl2 2, EGTA 11, HEPES 10, glucose 11, CaCl2 1 with pH 7.3, adjusted with 1 M KOH and a bath solution contained [mM] NaCl 162, KCl 5.31, NaHPO4 0.85, KH2PO4 0.22, HEPES 15, glucose 6.11, pH 7.4 adjusted with 1 M NaOH. Osmolarity of both solutions was set at 280–300 mOsmol.
# (§5) Whole-cell experiments were performed at a holding potential of −30 mV with a mean seal resistance of 1 GΩ. […] A fast liquid filament switch technique was used for the application of the agonist, presented in pulses of 2 s duration every 20 s. The liquid filament switch technique is able to exchange the solution passing an outside-out patch or small whole-cells within 1–2 ms. We calculated flow rate of background solution through the chamber with 3,4 ml/min corresponding to 4% of maximal pump rate. With regard to the chamber volume of 100 μl the exchange solution time within the chamber was assessed to approximately […], dependent on cell size accordingly. Piezo-switch and small diameter capillary (ID 0.15 mm) within the measurement chamber promoted the millisecond solution exchange. […] The induced current (I) by this saturating control solution was defined as Icontrol. […] The stability of the seal was controlled during the complete experiment via control of the seal resistance. A variation of 10-20% of the basic value was regarded as tolerable.
# [2] = target: T2, human α1R271Q-GlyR expressed in HEK 293 cells (Homo sapiens, UniProt P23415, R299Q); settings: R271Q
# T2 sequence (P23415 29-457 R299Q): T1 sequence (P23415 29-457 S295I) with I267S, R271Q
# Source text: as §1, §2, §3, §4, §5
# [3] = 10-90% of Imax, monoexponential fit
compound,measurement,setting,value
NCC(=O)O [glycine],Current amplitude [% of mean WT current amplitude] ± SEM,[1],68.2±68%
same,"nH ± SEM (Hill coefficient), glycine activation",[1],1.1±0.2
same,Rise time ± SEM,[1]; [3],6.6 ± 2.5 ms
same,Mean current amplitude ± SEM,[1]; saturating glycine 1 mM,1122±765 pA
same,Current amplitude [% of mean WT current amplitude] ± SEM,[2],7.5±15%
same,"nH ± SEM (Hill coefficient), glycine activation",[2],1.0±0.6
same,current peaks,[2]; 1 mM glycine,less than 50 pA
same,activation by low glycine concentrations,[2]; 10-100 μM glycine,lacks activation
same,Rise time ± SEM,[2]; [3],673 ± 224 ms

# Reference: paper PMC3517478 (BMC Neurology, 2012)
